The source of these data is US10799507B2, “5-(7H-pyrrolo[2,3-d]pyrimidin-4-yl)-5-azaspiro[2.5]octane-8-carboxylic acid derivatives as novel JAK kinase inhibitors” (LEO Pharma A/S, priority 2017, dated 2020).

One data set deals with JAK3 (Homo sapiens (Human), UniProt P52333). Description: JAK kinase assay (HTRF), JAK3. The format is biochemical. To be noted: catalytic domain, ATP at Km (2 μM). In outline: (§1)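 HTRF read-out of biotinylated TK peptide phosphorylation (1 μM) after a 20-30 min RT reaction in pH 7.0 Hepes buffer with 5 mM MgCl2 and 0.75% DMSO. JAK3 (His-tagged catalytic domain) used 2 μM ATP; TYK2 (GST-tagged, aa 871-1187) used 13 μM ATP plus 50 nM SEB, each at ATP Km.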
For orientation: In TR-FRET formats the signal depends on donor and acceptor labels being close together.

A further data set concerns the target JAK1 (Homo sapiens (Human), UniProt P23458). Description: JAK kinase assay (HTRF), JAK1. Format: biochemical. To be noted: catalytic domain, ATP at Km (7 μM). In outline: (§2)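 Catalytic-domain human JAK1 (GST-tagged, aa 850-1154) or His-tagged JAK2, baculovirus-expressed, phosphorylated 1 µM biotinylated TK peptide at Km ATP (JAK1 7 µM, 10 mM MgCl2, 50 nM SEB; JAK2 4 µM, 5 mM MgCl2) in pH 7.0 Hepes, 20-30 min RT. EDTA stop; overnight streptavidin-XL665/cryptate HTRF read.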

Another data set has as its target JAK2 (Homo sapiens (Human), UniProt O60674). Description: JAK kinase assay (HTRF), JAK2. The format is biochemical. To be noted: catalytic domain, ATP at Km (4 μM). The procedure, abridged: as §2
Another data set has as its target TYK2 (Homo sapiens (Human), UniProt P29597). As to the kind of experiment: JAK kinase assay (HTRF), TYK2. Format: biochemical. To be noted: catalytic domain, ATP at Km (13 μM). The procedure, abridged: as §1
Data set [1] in a line: in vitro metabolic stability in human liver microsomes. Format: in vitro ADME. To be noted: human, liver microsomes, 0.5 μM compound, 0.5 mg/mL microsomes, NADPH, 40 min, 37° C.; read-out: Human liver microsome Clapp (apparent intrinsic clearance). How it is done: To assess the in vitro metabolic stability, the compounds (0.5 μM) were incubated in duplicates with human liver microsomes (0.5 mg/mL) in phosphate buffer and NADPH, in 96-well plates for 40 min (37° C.), using a liquid handling robot (Hamilton Microlab Star). Sample aliquots were taken at 0, 5, 10, 20 and 40 min, and dispensed into cold acetonitrile, in order to stop the reactions. The plates were centrifuged for 30 minutes before the samples were analyzed using liquid chromatography coupled to a time-of-flight mass spectrometer (AB Sciex API5600). The compound depletion over time was used to estimate the elimination rate constant, from which the apparent intrinsic clearance, Clapp, was calculated and the values are listed in Table 2.
In general terms: Microsomes from liver hold many membrane-bound enzymes, among them those of drug oxidation.

A value given as a limit tells only on which side of the number the result lay.

Chain of TYK2 (P29597 871-1187): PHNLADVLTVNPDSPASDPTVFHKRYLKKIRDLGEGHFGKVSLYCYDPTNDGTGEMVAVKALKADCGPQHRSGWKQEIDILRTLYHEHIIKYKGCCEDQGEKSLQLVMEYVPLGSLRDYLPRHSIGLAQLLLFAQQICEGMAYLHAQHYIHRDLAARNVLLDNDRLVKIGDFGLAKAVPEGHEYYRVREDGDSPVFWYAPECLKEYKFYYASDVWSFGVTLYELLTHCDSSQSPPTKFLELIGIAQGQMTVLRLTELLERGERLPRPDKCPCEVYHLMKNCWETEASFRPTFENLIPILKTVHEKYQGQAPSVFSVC
Chain of JAK1 (P23458 850-1154): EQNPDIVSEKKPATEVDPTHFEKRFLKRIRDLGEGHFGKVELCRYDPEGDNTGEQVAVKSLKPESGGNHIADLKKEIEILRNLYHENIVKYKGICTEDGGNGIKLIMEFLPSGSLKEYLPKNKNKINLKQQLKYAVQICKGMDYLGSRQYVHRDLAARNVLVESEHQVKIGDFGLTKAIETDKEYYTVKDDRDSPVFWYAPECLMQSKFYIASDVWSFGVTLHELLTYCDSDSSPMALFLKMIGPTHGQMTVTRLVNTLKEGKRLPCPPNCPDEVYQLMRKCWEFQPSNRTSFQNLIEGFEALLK
Chain of JAK3 (P52333 822-1111): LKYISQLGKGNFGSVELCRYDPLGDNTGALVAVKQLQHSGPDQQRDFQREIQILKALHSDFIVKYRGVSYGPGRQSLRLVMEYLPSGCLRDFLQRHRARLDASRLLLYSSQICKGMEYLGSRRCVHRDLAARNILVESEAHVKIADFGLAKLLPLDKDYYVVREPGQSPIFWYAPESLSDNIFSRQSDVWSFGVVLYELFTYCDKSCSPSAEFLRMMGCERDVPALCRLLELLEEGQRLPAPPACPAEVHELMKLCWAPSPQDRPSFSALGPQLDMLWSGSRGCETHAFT
Chain of JAK2 (O60674 849-1124): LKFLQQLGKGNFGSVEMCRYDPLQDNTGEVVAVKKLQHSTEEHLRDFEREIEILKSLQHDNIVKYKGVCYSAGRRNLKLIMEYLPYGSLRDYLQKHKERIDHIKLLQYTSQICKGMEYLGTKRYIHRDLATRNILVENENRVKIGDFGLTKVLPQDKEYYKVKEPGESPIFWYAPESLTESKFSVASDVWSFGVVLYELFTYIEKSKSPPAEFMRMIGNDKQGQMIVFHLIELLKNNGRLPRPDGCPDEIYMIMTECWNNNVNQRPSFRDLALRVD

Usually EC50 stands for the concentration that produces a half-maximal response. A low value points to greater potency. As to `O=C(NC[C@@H](O)c1ccc(F)cc1)[C@H]1CCN(c2ncnc3[nH]ccc23)CC12CC2` [Example 7, (8S)-N-[(2S)-2-(4-fluorophenyl)-2-hydroxy-ethyl]-5-(7H-pyrrolo[2,3-d]pyrimidin-4-yl)-5-azaspiro[2.5]octane-8-carboxamide], the concentration giving a half-maximal response (EC50) worked out at 8.8 nM at JAK3, 0.6 nM at JAK1, 1.7 nM on JAK2 and 4.9 nM on TYK2. For the same compound, in data set [1], the CLint scaled at 0.5 μM was above 200 mL/min/kg.
For `N#Cc1ccc([C@H](O)CNC(=O)[C@H]2CCN(c3ncnc4[nH]ccc34)CC23CC3)cc1` [Example 8, (8S)-N-[(2S)-2-(4-cyanophenyl)-2-hydroxy-ethyl]-5-(7H-pyrrolo[2,3-d]pyrimidin-4-yl)-5-azaspiro[2.5]octane-8-carboxamide], in that order: 4.9 nM, 0.6 nM, 2.7 nM, 17.7 nM and above 200 mL/min/kg.
With `O=C(N[C@@H](CO)[C@@H](O)c1ccc(F)cc1)[C@H]1CCN(c2ncnc3[nH]ccc23)CC12CC2` [Example 9, (8S)-N-[(1S,2S)-2-(4-fluorophenyl)-2-hydroxy-1-(hydroxymethyl)ethyl]-5-(7H-pyrrolo[2,3-d]pyrimidin-4-yl)-5-azaspiro[2.5]octane-8-carboxamide], the EC50 at JAK3 worked out at 7 nM; on JAK1 it was 0.7 nM; on JAK2, 1.6 nM; at TYK2, 7.7 nM. Further, the CLint scaled at 0.5 μM in data set [1] is above 200 mL/min/kg.
For `O=C(NC[C@H](O)C1CCOCC1)[C@H]1CCN(c2ncnc3[nH]ccc23)CC12CC2` [Example 10, (8S)-N-[(2R)-2-hydroxy-2-tetrahydropyran-4-yl-ethyl]-5-(7H-pyrrolo[2,3-d]pyrimidin-4-yl)-5-azaspiro[2.5]octane-8-carboxamide], in that order: 11.7 nM, 0.8 nM, 2.9 nM, 10.8 nM and 28 mL/min/kg.
Taken in the same sequence, the figures for `O=C(NC[C@H](O)C1CCCC1)[C@H]1CCN(c2ncnc3[nH]ccc23)CC12CC2` [Example 11, (8S)-N-[(2R)-2-cyclopentyl-2-hydroxy-ethyl]-5-(7H-pyrrolo[2,3-d]pyrimidin-4-yl)-5-azaspiro[2.5]octane-8-carboxamide] were 6.7 nM, 0.8 nM, 2.1 nM, 18.2 nM and 148 mL/min/kg.
Turning to `O=C(NC[C@@H](O)c1ccc(F)cn1)[C@H]1CCN(c2ncnc3[nH]ccc23)CC12CC2` [Example 12, (8S)-N-[(2R)-2-(5-fluoro-2-pyridyl)-2-hydroxy-ethyl]-5-(7H-pyrrolo[2,3-d]pyrimidin-4-yl)-5-azaspiro[2.5]octane-8-carboxamide], the EC50 on JAK3 came to 26.5 nM; on JAK1, 0.8 nM; at JAK2 it was 4 nM; at TYK2, 13.9 nM. Also, the CLint scaled at 0.5 μM in data set [1] worked out at 143 mL/min/kg.
Taken in the same sequence, the figures for `N#Cc1ccc(CNC(=O)[C@H]2CCN(c3ncnc4[nH]ccc34)CC23CC3)cc1` [Example 13, (8S)-N-[(4-cyanophenyl)methyl]-5-(7H-pyrrolo[2,3-d]pyrimidin-4-yl)-5-azaspiro[2.5]octane-8-carboxamide] were 8.9 nM, 0.9 nM, 6.1 nM, 81.1 nM and 82 mL/min/kg.
As for `C[C@H](NC(=O)[C@H]1CCN(c2ncnc3[nH]ccc23)CC12CC2)c1ccc(C#N)c(F)c1` [Example 14, (8S)-N-[(1S)-1-(4-cyano-3-fluoro-phenyl)ethyl]-5-(7H-pyrrolo[2,3-d]pyrimidin-4-yl)-5-azaspiro[2.5]octane-8-carboxamide], the EC50 at JAK3 stood at 6.5 nM; at JAK1 it was 0.9 nM; at JAK2, 2.2 nM; on TYK2 it was 26.8 nM. Besides, the CLint scaled at 0.5 μM in data set [1] is above 200 mL/min/kg.
Taken in the same sequence, the figures for `O=C(NC[C@H](O)C1CCCCC1)[C@H]1CCN(c2ncnc3[nH]ccc23)CC12CC2` [Example 15, (8S)-N-[(2R)-2-cyclohexyl-2-hydroxy-ethyl]-5-(7H-pyrrolo[2,3-d]pyrimidin-4-yl)-5-azaspiro[2.5]octane-8-carboxamide] were 3.7 nM, 0.9 nM, 1.7 nM, 7.4 nM and above 200 mL/min/kg.
For `N#Cc1ccc(CNC(=O)[C@H]2CCN(c3ncnc4[nH]ccc34)CC23CC3)cc1F` [Example 16, (8S)-N-[(4-cyano-3-fluoro-phenyl)methyl]-5-(7H-pyrrolo[2,3-d]pyrimidin-4-yl)-5-azaspiro[2.5]octane-8-carboxamide], in that order: 7.1 nM, 1 nM, 3.6 nM, 44.3 nM and 180 mL/min/kg.
On to `O=C(N[C@@H](CO)c1ccc(F)cc1)[C@H]1CCN(c2ncnc3[nH]ccc23)CC12CC2` [Example 17, (8S)-N-[(1R)-1-(4-fluorophenyl)-2-hydroxy-ethyl]-5-(7H-pyrrolo[2,3-d]pyrimidin-4-yl)-5-azaspiro[2.5]octane-8-carboxamide], for which the EC50 is 5.7 nM on JAK3, 1 nM on JAK1, 3 nM at JAK2 and 20.5 nM on TYK2. Moreover, the CLint scaled at 0.5 μM in data set [1] came to 43 mL/min/kg.
Taken in the same sequence, the figures for `N#Cc1ccc([C@H](CO)NC(=O)[C@H]2CCN(c3ncnc4[nH]ccc34)CC23CC3)cc1` [Example 18, (8S)-N-[(1R)-1-(4-cyanophenyl)-2-hydroxy-ethyl]-5-(7H-pyrrolo[2,3-d]pyrimidin-4-yl)-5-azaspiro[2.5]octane-8-carboxamide] were 7.5 nM, 1 nM, 3.5 nM, 45.5 nM and 44 mL/min/kg.
For `N#Cc1ccc([C@H](CO)NC(=O)C2CCN(c3ncnc4[nH]ccc34)CC23CC3)cc1` (stereo partly drawn) [Example 19, N-[(1R)-1-(4-cyanophenyl)-2-hydroxy-ethyl]-5-(7H-pyrrolo[2,3-d]pyrimidin-4-yl)-5-azaspiro[2.5]octane-8-carboxamide], the concentration giving a half-maximal response (EC50) at JAK3 turned out to be 8.4 nM; on JAK1, 1.1 nM; on JAK2, 4 nM; on TYK2, 109 nM. In data set [1], the CLint scaled at 0.5 μM turned out to be 88 mL/min/kg.
Taken in the same sequence, the figures for `C[C@H](NC(=O)[C@H]1CCN(c2ncnc3[nH]ccc23)CC12CC2)c1ccc(C#N)cc1F` [Example 20, (8S)-N-[(1S)-1-(4-cyano-2-fluoro-phenyl)ethyl]-5-(7H-pyrrolo[2,3-d]pyrimidin-4-yl)-5-azaspiro[2.5]octane-8-carboxamide] were 17.6 nM, 1.1 nM, 3.1 nM, 51.3 nM and 161 mL/min/kg.
For `C[C@H](NC(=O)C1CCN(c2ncnc3[nH]ccc23)CC12CC2)c1ccc(C#N)cc1` (stereo partly drawn) [Example 21, N-[(1S)-1-(4-cyanophenyl)ethyl]-5-(7H-pyrrolo[2,3-d]pyrimidin-4-yl)-5-azaspiro[2.5]octane-8-carboxamide], in that order: 7.7 nM, 1.1 nM, 2.5 nM, 52.1 nM and 170 mL/min/kg.
Regarding `C[C@H](NC(=O)[C@H]1CCN(c2ncnc3[nH]ccc23)CC12CC2)c1ccc(C#N)cc1` [Example 22, (8S)-N-[(1S)-1-(4-cyanophenyl)ethyl]-5-(7H-pyrrolo[2,3-d]pyrimidin-4-yl)-5-azaspiro[2.5]octane-8-carboxamide], the EC50 on JAK3 turned out to be 7.1 nM; at JAK1, 1.2 nM; at JAK2, 3.2 nM; at TYK2, 43.9 nM. Also, in data set [1], the CLint scaled at 0.5 μM amounted to 123 mL/min/kg.
On to `O=C(NCC1(CO)CC(F)(F)C1)[C@H]1CCN(c2ncnc3[nH]ccc23)CC12CC2` [Example 23, (8S)-N-[[3,3-difluoro-1-(hydroxymethyl)cyclobutyl]methyl]-5-(7H-pyrrolo[2,3-d]pyrimidin-4-yl)-5-azaspiro[2.5]octane-8-carboxamide], for which the 50% effective concentration (EC50) at JAK3 was 6.7 nM; on JAK1, 1.3 nM; on JAK2, 2.7 nM; on TYK2 it was 19.8 nM. In data set [1], the CLint scaled at 0.5 μM amounted to 40 mL/min/kg.
Taken in the same sequence, the figures for `O=C(N[C@@H](CO)C1CCCCC1)[C@H]1CCN(c2ncnc3[nH]ccc23)CC12CC2` [Example 24, (8S)-N-[(1R)-1-cyclohexyl-2-hydroxy-ethyl]-5-(7H-pyrrolo[2,3-d]pyrimidin-4-yl)-5-azaspiro[2.5]octane-8-carboxamide] were 10.9 nM, 1.3 nM, 2.7 nM, 19.9 nM and 159 mL/min/kg.
